Source: patent publication US8183374B2, “Piperidine and piperazine derivatives” (M's Science Corporation, priority 2006, dated 2012)

Columns and labels:
rats = settings: microinjection/injection in rats; cited from earlier work
σ1 receptors = molecular target: T1, σ1 receptors (Homo sapiens, UniProt Q99720); assay: σ1 receptor binding assay; settings: HEK-293 cell membranes, 10 nM (+)-[3H]-pentazocine, 120 min at 37° C.
T1 construct: endogenous in cells; host or cells: HEK-293 cell membranes
Procedure: Sigma-1 (σ1) and sigma-2 (σ2) receptor binding assays are carried out in membranes from HEK-293 (Human Embryonic Kidney) cells.
Confluent HEK-293 cells are harvested in PBS/5 mM EDTA. They are centrifuged at 2000 rpm for 5 min and then washed two times in PBS. Cells are homogenized in 20 mM Tris-HCL (pH=7.5) containing 5 mM EDTA, 0.5 mM PMSF and 0.5 μg/mL leupeptin using a Dounce homogenizer and sonicated for 5 minutes.
Nuclear debris and intact cells are removed by centrifugation at 3000 rpm for 10 minutes at 4° C. […]
Proteins are determined using the Bio Rad Protein Assay Dye Reagent and the membranes are aliquoted and frozen at −80° C. […]
Total binding is determined by incubating 50 μg of HEK-293 cell membranes with 10 nM (+)−[^3H]-pentazocine (Perkin-Elmer, 35 Ci/mmol) and assay buffer (50 mM Tris-HCl, pH=8.3) in a total volume of 200 μl. Non specific binding is determined in the presence of 10 μM unlabeled pentazocine. […] The filters are washed three times and the membrane-bound radioactivity is determined in a Microbeta scintillation counter. […]
Specific binding is determined by subtraction of non specific binding from total binding. […]

T1 sequence (Q99720 whole entry): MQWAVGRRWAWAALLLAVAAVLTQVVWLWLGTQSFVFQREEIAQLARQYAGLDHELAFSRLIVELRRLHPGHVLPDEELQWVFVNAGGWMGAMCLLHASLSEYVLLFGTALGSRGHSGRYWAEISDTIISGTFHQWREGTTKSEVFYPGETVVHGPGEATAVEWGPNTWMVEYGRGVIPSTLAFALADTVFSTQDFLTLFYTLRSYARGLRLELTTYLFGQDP

Compound | neck dystonia in rats (rats) | IC50 in the σ1 receptor binding assay (σ1 receptors)
Cc1ccccc1NC(=N)Nc1ccccc1C [DTG, 1,3-di-2-tolyl-guanidine] | induced neck dystonia | –
COc1cc(CCC(=O)N2CCN(CCOc3ccc(F)cc3)CC2)cc(OC)c1OC.Cl [Example 35, 1-{4-[2-(4-Fluorophenoxy)Ethyl]Piperazin-1-yl}-3-(3,4,5-Trimethoxy-Phenyl)Propan-1-One Hydrochloride] | – | a little less active
COc1cc(CC(=O)N2CCN(CCOc3ccccc3F)CC2)cc(OC)c1OC.Cl [Example 41, 1-{4-[2-(2-Fluorophenoxy)Ethyl]Piperazin-1-yl}-2-(3,4,5-Trimethoxy-Phenyl)Ethanone Hydrochloride] | – | a little less active
COc1ccc(CCN2CCN(CCCc3ccccc3)CC2)cc1OC [SA-4503, 1-[2-(3,4-dimethoxyphenyl)ethyl]-4-(3-phenylpropyl)piperazine] | had no effect | –
